# Measurements reported in PubChem BioAssay AID2060513 (Molecular Pharmacology Branch, DTP, NCI, 2025).
# System: 299254-011-R-J1-PDC complex spheroids viability
# Experiment: Anticancer human tumor 299254-011-R-J1-PDC patient-derived melanoma cell line growth inhibition [GQUAD]
# Conditions: for IC50: curve of first compound; for viability, T/C: stronger effect = lower value
# How it was run: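 Viability of tumor cells grown as complex spheroids with endothelial and stromal cells, exposed to drug combinations. Top concentration at or near clinical Cmax (else 10 microM), diluted in half-log increments.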
# [1] = second compound 0.0316 µM, first compound 0.0316 µM
# [2] = second compound 0.0316 µM, first compound 0.1 µM
# [3] = second compound 0.0316 µM, first compound 0.316 µM
# [4] = second compound 0.0316 µM, first compound 1 µM
# [5] = second compound 0.0316 µM, first compound 3.16 µM
# [6] = second compound 0.0316 µM, first compound 10 µM
# [7] = second compound 0.1 µM, first compound 0.0316 µM
# [8] = second compound 0.1 µM, first compound 0.1 µM
# [9] = second compound 0.1 µM, first compound 0.316 µM
# [10] = second compound 0.1 µM, first compound 1 µM
# [11] = second compound 0.1 µM, first compound 3.16 µM
# [12] = second compound 0.1 µM, first compound 10 µM
# [13] = second compound 0.316 µM, first compound 0.0316 µM
# [14] = second compound 0.316 µM, first compound 0.1 µM
# [15] = second compound 0.316 µM, first compound 0.316 µM
# [16] = second compound 0.316 µM, first compound 1 µM
# [17] = second compound 0.316 µM, first compound 3.16 µM
# [18] = second compound 0.316 µM, first compound 10 µM
# [19] = second compound 1 µM, first compound 0.0316 µM
# [20] = second compound 1 µM, first compound 0.1 µM
# [21] = second compound 1 µM, first compound 0.316 µM
# [22] = second compound 1 µM, first compound 1 µM
# [23] = second compound 1 µM, first compound 3.16 µM
# [24] = second compound 1 µM, first compound 10 µM
# [25] = second compound 3.16 µM, first compound 0.0316 µM
# [26] = second compound 3.16 µM, first compound 0.1 µM
# [27] = second compound 3.16 µM, first compound 0.316 µM
# [28] = second compound 3.16 µM, first compound 1 µM
# [29] = second compound 3.16 µM, first compound 3.16 µM
# [30] = second compound 3.16 µM, first compound 10 µM
# [31] = second compound 10 µM, first compound 0.0316 µM
# [32] = second compound 10 µM, first compound 0.1 µM
# [33] = second compound 10 µM, first compound 0.316 µM
# [34] = second compound 10 µM, first compound 1 µM
# [35] = second compound 10 µM, first compound 3.16 µM
# [36] = second compound 10 µM, first compound 10 µM
# 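Further: spheroids exposed to the agents for seven days before readout.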
# 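Wherever viability, T/C is given: percent viability relative to DMSO vehicle control wells = 100%.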
structure (smiles),measurement,setting,value
O=c1[nH]cc(F)c(=O)[nH]1 + CN(C)c1ccc(Nc2c3ccc(NC(=O)CCN4CCCC4)cc3nc3cc(NC(=O)CCN4CCCC4)ccc23)cc1,IC50,second compound 0.0316 µM,> 10 µM
same,IC50,second compound 0.1 µM,> 10 µM
same,IC50,second compound 0.316 µM,> 10 µM
same,IC50,second compound 1 µM,> 10 µM
same,IC50,second compound 3.16 µM,> 10 µM
same,IC50,second compound 10 µM,> 10 µM
same,"viability, T/C",[1],93.3%
same,"viability, T/C",[2],106%
same,"viability, T/C",[3],105%
same,"viability, T/C",[4],104%
same,"viability, T/C",[5],110%
same,"viability, T/C",[6],82.9%
same,"viability, T/C",[7],79.3%
same,"viability, T/C",[8],91.4%
same,"viability, T/C",[9],90.7%
same,"viability, T/C",[10],92.2%
same,"viability, T/C",[11],86.7%
same,"viability, T/C",[12],91.5%
same,"viability, T/C",[13],89.2%
same,"viability, T/C",[14],106%
same,"viability, T/C",[15],80.2%
same,"viability, T/C",[16],93.3%
same,"viability, T/C",[17],104%
same,"viability, T/C",[18],82.6%
same,"viability, T/C",[19],106%
same,"viability, T/C",[20],91.3%
same,"viability, T/C",[21],93.3%
same,"viability, T/C",[22],84.6%
same,"viability, T/C",[23],103%
same,"viability, T/C",[24],101%
same,"viability, T/C",[25],82.7%
same,"viability, T/C",[26],103%
same,"viability, T/C",[27],112%
same,"viability, T/C",[28],95.1%
same,"viability, T/C",[29],115%
same,"viability, T/C",[30],106%
same,"viability, T/C",[31],91.3%
same,"viability, T/C",[32],96.8%
same,"viability, T/C",[33],98.4%
same,"viability, T/C",[34],94.7%
same,"viability, T/C",[35],90.9%
same,"viability, T/C",[36],96.3%
CC(=O)O[C@H]1C(=O)[C@@]2(C)[C@H]([C@H](OC(=O)c3ccccc3)[C@]3(O)C[C@H](OC(=O)[C@H](O)[C@@H](NC(=O)c4ccccc4)c4ccccc4)C(C)=C1C3(C)C)[C@]1(OC(C)=O)CO[C@@H]1C[C@@H]2O + Cc1cnc(CNC(=O)c2c(=O)c3ccc(N4CCCN(C)CC4)nc3n3c2sc2ccccc23)cn1,IC50,second compound 0.0316 µM,0.412 µM
same,IC50,second compound 0.1 µM,0.243 µM
same,IC50,second compound 0.316 µM,0.273 µM
same,IC50,second compound 1 µM,0.169 µM
same,IC50,second compound 3.16 µM,0.205 µM
same,IC50,second compound 10 µM,< 0.0316 µM
same,"viability, T/C",[1],90%
same,"viability, T/C",[2],77.5%
same,"viability, T/C",[3],58.8%
same,"viability, T/C",[4],23.7%
same,"viability, T/C",[5],26.8%
same,"viability, T/C",[6],23%
same,"viability, T/C",[7],114%
same,"viability, T/C",[8],89.2%
same,"viability, T/C",[9],38.1%
same,"viability, T/C",[10],29.3%
same,"viability, T/C",[11],29.1%
same,"viability, T/C",[12],23.3%
same,"viability, T/C",[13],94.4%
same,"viability, T/C",[14],75.1%
same,"viability, T/C",[15],44.9%
same,"viability, T/C",[16],32.1%
same,"viability, T/C",[17],24.1%
same,"viability, T/C",[18],22.7%
same,"viability, T/C",[19],67.6%
same,"viability, T/C",[20],62.8%
same,"viability, T/C",[21],34.6%
same,"viability, T/C",[22],30.8%
same,"viability, T/C",[23],24.9%
same,"viability, T/C",[24],27.1%
same,"viability, T/C",[25],57.7%
same,"viability, T/C",[26],58%
same,"viability, T/C",[27],43.6%
same,"viability, T/C",[28],39.8%
same,"viability, T/C",[29],25.6%
same,"viability, T/C",[30],29.2%
same,"viability, T/C",[31],0.42%
same,"viability, T/C",[32],0.39%
same,"viability, T/C",[33],0.41%
same,"viability, T/C",[34],0.35%
same,"viability, T/C",[35],0.4%
same,"viability, T/C",[36],0.34%
COc1ccc([C@@H](O)c2cc(-c3ncnc4cc(N5CCOCC5)ccc34)c(F)cc2Cl)nn1 + Cc1cnc(CNC(=O)c2c(=O)c3ccc(N4CCCN(C)CC4)nc3n3c2sc2ccccc23)cn1,IC50,second compound 0.0316 µM,7.51 µM
same,IC50,second compound 0.1 µM,6.85 µM
same,IC50,second compound 0.316 µM,3.15 µM
same,IC50,second compound 1 µM,2.79 µM
same,IC50,second compound 3.16 µM,2.71 µM
same,IC50,second compound 10 µM,< 0.0316 µM
same,"viability, T/C",[1],75.6%
same,"viability, T/C",[2],87.8%
same,"viability, T/C",[3],83.6%
same,"viability, T/C",[4],82%
same,"viability, T/C",[5],83.4%
same,"viability, T/C",[6],39.2%
same,"viability, T/C",[7],86.4%
same,"viability, T/C",[8],82.5%
same,"viability, T/C",[9],109%
same,"viability, T/C",[10],88.2%
same,"viability, T/C",[11],78.1%
same,"viability, T/C",[12],36%
same,"viability, T/C",[13],84%
same,"viability, T/C",[14],87.4%
same,"viability, T/C",[15],86.6%
same,"viability, T/C",[16],68.1%
same,"viability, T/C",[17],51.6%
same,"viability, T/C",[18],32.4%
same,"viability, T/C",[19],81.5%
same,"viability, T/C",[20],76.6%
same,"viability, T/C",[21],73%
same,"viability, T/C",[22],80%
same,"viability, T/C",[23],46.6%
same,"viability, T/C",[24],26.7%
same,"viability, T/C",[25],67.2%
same,"viability, T/C",[26],63.1%
same,"viability, T/C",[27],57.2%
same,"viability, T/C",[28],62.8%
same,"viability, T/C",[29],47.7%
same,"viability, T/C",[30],23.2%
same,"viability, T/C",[31],0.4%
same,"viability, T/C",[32],24.3%
same,"viability, T/C",[33],45.3%
same,"viability, T/C",[34],21.1%
same,"viability, T/C",[35],0.32%
same,"viability, T/C",[36],0.26%
